Data on 29 molecules can be found in patent publication US12459899B2, “Isoquinolinone derivatives, method for preparing the same, and pharmaceutical composition for preventing or treating poly(ADP-ribose) polymerase-1-related diseases, comprising the same as active ingredient” (DIGMBIO. INC., priority 2019, dated 2025).

For the first test, the target named is PARP-1 (poly[ADP-ribose] polymerase 1) enzyme (Homo sapiens (Human), UniProt P09874). The experiment in a line: PARP-1 (poly[ADP-ribose] polymerase 1) enzyme inhibitory ability, Trevigen assay kit. The note with it: 1 nM compound; read-out: PAR P-1 Inhibitory ability at 1 nM. The format is biochemical. Here is the method: In order to evaluate the PARP-1 (poly[ADP-ribose] polymerase 1) enzyme inhibitory ability of the compounds according to the present invention, an experiment was conducted as follows.
Chain of PARP-1 (poly[ADP-ribose] polymerase 1) enzyme (P09874 whole entry): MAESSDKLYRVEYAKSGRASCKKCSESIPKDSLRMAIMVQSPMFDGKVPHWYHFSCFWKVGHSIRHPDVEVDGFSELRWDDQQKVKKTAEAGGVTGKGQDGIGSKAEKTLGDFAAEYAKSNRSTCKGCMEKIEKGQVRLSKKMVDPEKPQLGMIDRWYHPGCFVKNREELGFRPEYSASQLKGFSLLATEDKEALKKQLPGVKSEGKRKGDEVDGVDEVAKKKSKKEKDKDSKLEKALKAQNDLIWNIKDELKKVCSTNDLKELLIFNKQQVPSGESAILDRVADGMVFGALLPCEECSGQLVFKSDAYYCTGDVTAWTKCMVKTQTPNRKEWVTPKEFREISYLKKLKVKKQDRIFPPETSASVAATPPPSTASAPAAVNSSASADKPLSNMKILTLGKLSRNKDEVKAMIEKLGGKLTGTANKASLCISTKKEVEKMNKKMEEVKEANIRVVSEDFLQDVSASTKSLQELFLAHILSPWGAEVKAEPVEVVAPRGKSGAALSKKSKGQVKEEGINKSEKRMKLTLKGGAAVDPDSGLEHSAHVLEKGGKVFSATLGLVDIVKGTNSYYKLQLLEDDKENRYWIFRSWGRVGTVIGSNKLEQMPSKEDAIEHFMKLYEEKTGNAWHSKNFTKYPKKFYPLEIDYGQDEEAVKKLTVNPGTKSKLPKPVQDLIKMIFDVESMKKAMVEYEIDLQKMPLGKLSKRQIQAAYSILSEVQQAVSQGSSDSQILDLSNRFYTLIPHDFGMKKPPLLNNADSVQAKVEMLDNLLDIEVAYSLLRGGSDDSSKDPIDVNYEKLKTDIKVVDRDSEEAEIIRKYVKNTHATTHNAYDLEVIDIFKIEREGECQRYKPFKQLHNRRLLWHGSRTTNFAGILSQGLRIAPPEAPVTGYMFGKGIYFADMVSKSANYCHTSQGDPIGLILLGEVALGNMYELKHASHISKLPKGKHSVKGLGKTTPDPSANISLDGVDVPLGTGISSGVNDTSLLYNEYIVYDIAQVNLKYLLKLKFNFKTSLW
Specifically, in order to evaluate the PARP-1 (poly[ADP-ribose] polymerase 1) enzyme inhibitory ability of the compounds of Examples 1 to 276 according to the present invention, the PARP-1 (poly[ADP-ribose] polymerase 1) activity was investigated in the following manner using an assay kit purchased from Trevigen, Inc. (Catalog number: 4677-096-K). 50 μL of 1×PARP buffer (provided by Trevigen's kit) was dispensed into a 96-well plate coated with histones per each well, and then rehydrated for 30 minutes. After removing the 1×PARP buffer present in the well, PARP-1 (poly[ADP-ribose] polymerase 1) enzyme (0.5 unit/well) and 1 μM concentration or various concentrations of the compounds of Example 1 to 276 were added at room temperature and reacted for 10 minutes. Thereafter, each well was treated with 25 μL of 1×PARP cocktail (biotinylated NAD, activated DNA, provided by Trevigen's kit), and then reacted at room temperature for 1 hour. After the reaction was completed, each well was washed twice with PBS (7.5 mM Na2HPO4, 2.5 mM NaH2PO4, 145 mM NaCl) containing 0.1% triton X-100, and washed twice with PBS. Then, 50 μL of strep-HRP (streptavidin-linked peroxidase) was added and reacted at room temperature for 1 hour, and then washed twice with PBS containing 0.1% triton X-100, and washed twice with PBS. After removing all PBS, 50 μL of TACS-sapphire, a substrate, was added, and reacted at room temperature for 15 minutes while blocking the light. After the reaction was terminated by treatment with 50 μL of 5% phosphoric acid to each well, the absorbance was measured at 450 nm using a microplate reader Victor3 from PerkinElmer, Inc. to quantify the value.
`Cc1ccc(F)c2c(=O)[nH]c(CCCN3C4CCC3CN(c3ccc(Cl)cc3)C4)cc12` [Example 201, 3-(3-(3-(4-chlorophenyl)-3,8-diazabicyclo[3.2.1]octan-8-yl)propyl)-8-fluoro-5-methylisoquinolin-1(2H)-one]: the inhibition at 0.001 µM was less than 50%.
On to `Cc1ccc(F)c2c(=O)[nH]c(CCCN3CCN(c4ccc(C#N)nc4)CC3)cc12` [Example 21, 5-(4-(3-(8-fluoro-5-methyl-1-oxo-1,2-dihydroisoquinolin-3-yl)propyl)piperazin-1-yl)picolinonitrile], for which the inhibition at 0.001 µM is less than 50%.
Regarding `N#Cc1ccc(NC2CCN(CCCc3cc4ncccc4c(=O)[nH]3)CC2)cn1` [Example 251, 5-((1-(3-(5-oxo-5,6-dihydro-1,6-naphthyridin-7-yl)propyl)piperidin-4-yl)amino)picolinonitrile], the inhibition at 0.001 µM is less than 50%.
Take `Cc1ccc(F)c2c(=O)[nH]c(CCC(=O)N3C4CCC3CC(O)C4)cc12` (centres unmarked) [Example 269, 8-fluoro-3-(3-(3-hydroxy-8-azabicyclo[3.2.1]octan-8-yl)-3-oxopropyl)-5-methylisoquinolin-1(2H)-one]: the inhibition at 0.001 µM is less than 50%.
Still for that read-out and setting: next, `O=C(CCc1cc2ccc(F)cc2c(=O)[nH]1)N1CCN(C(=O)C2CCC2)CC1` [Example 180, 3-(3-(4-(cyclobutanecarbonyl)piperazin-1-yl)-3-oxopropyl)-7-fluoroisoquinolin-1(2H)-one]: less than 50%.
Turning to `N#Cc1ccc(N2CCN(CCCc3cc4cccc(F)c4c(=O)[nH]3)CC2)cn1` [Example 2, 5-(4-(3-(8-fluoro-1-oxo-1,2-dihydroisoquinolin-3-yl)propyl)piperazin-1-yl)picolinonitrile], the inhibition at 0.001 µM is less than 50%.
In the case of `N#Cc1ccc(F)c(C2=CCN(C(=O)CCc3cc4ccc(F)cc4c(=O)[nH]3)CC2)c1` [Example 111, 4-fluoro-3-(1-(3-(7-fluoro-1-oxo-1,2-dihydroisoquinolin-3-yl)propanoyl)-1,2,3,6-tetrahydropyridin-4-yl)benzonitrile], the inhibition at 0.001 µM was less than 50%.
Turning to `Cc1ccc(F)c2c(=O)[nH]c(CCC(=O)N3CCN(c4ccc(C#N)cn4)CC3)cc12` [Example 123, 6-(4-(3-(8-fluoro-5-methyl-1-oxo-1,2-dihydroisoquinolin-3-yl)propanoyl)piperazin-1-yl)nicotinonitrile], the inhibition at 0.001 µM is less than 50%.
Consider `O=C(O)c1cccc(N2CCN(CCCc3cc4ccc(F)cc4c(=O)[nH]3)CC2)c1` [Example 19, 3-(4-(3-(7-fluoro-1-oxo-1,2-dihydroisoquinolin-3-yl)propyl)piperazin-1-yl)benzoic acid], for which the inhibition at 0.001 µM is less than 50%.
In the case of `N#Cc1ccc(N2CCN(C(=O)CCc3cc4ccc(F)cc4c(=O)[nH]3)CC2)cn1` [Example 97, 5-(4-(3-(7-fluoro-1-oxo-1,2-dihydroisoquinolin-3-yl)propanoyl)piperazin-1-yl)picolinonitrile], the inhibition at 0.001 µM is less than 50%.
With `N#Cc1ccc(N2CCN(C(=O)CCc3cc4ncccc4c(=O)[nH]3)CC2)cc1` [Example 241, 4-(4-(3-(5-oxo-5,6-dihydro-1,6-naphthyridin-7-yl)propanoyl)piperazin-1-yl)benzonitrile], the inhibition at 0.001 µM was 50 to 80%.
As for `Cc1ccc(F)c2c(=O)[nH]c(CCC(=O)N3CCN(c4ccc(C#N)nc4)CC3)cc12` [Example 124, 5-(4-(3-(8-fluoro-5-methyl-1-oxo-1,2-dihydroisoquinolin-3-yl)propanoyl)piperazin-1-yl)picolinonitrile], the inhibition at 0.001 µM is less than 50%.
On to `Cc1cc(F)cc2c(=O)[nH]c(CCCN3CC=C(c4ccc(F)cc4)CC3)cc12` [Example 59, 7-fluoro-3-(3-(4-(4-fluorophenyl)-3,6-dihydropyridin-1(2H)-yl)propyl)-5-methylisoquinolin-1(2H)-one], for which the inhibition at 0.001 µM was less than 50%.
Turning to `Cc1cc(F)cc2c(=O)[nH]c(CCCN3CC=C(c4ccc(C#N)cn4)CC3)cc12` [Example 60, 1′-(3-(7-fluoro-5-methyl-1-oxo-1,2-dihydroisoquinolin-3-yl)propyl)-1′,2′,3′,6′-tetrahydro-[2,4′-bipyridine]-5-carbonitrile], the inhibition at 0.001 µM is less than 50%.
Still for that read-out and setting: next, `N#Cc1ccc(N2CC3CCC(C2)N3C(=O)CCc2cc3ccc(F)cc3c(=O)[nH]2)nc1` [Example 220, 6-(8-(3-(7-fluoro-1-oxo-1,2-dihydroisoquinolin-3-yl)propanoyl)3,8-diazabicyclo[3.2.1]octan-3-yl)nicotinonitrile]: less than 50%; `O=C(CCc1cc2cccc(F)c2c(=O)[nH]1)N1CCN(C(=O)C2CC2)CC1` [Example 182, 3-(3-(4-(cyclopropanecarbonyl)piperazin-1-yl)-3-oxopropyl)-8-fluoroisoquinolin-1(2H)-one]: less than 50%; `N#Cc1ccc(C2=CCN(CCCc3cc4ncccc4c(=O)[nH]3)CC2)cn1` [Example 234, 1′-(3-(5-oxo-5,6-dihydro-1,6-naphthyridin-7-yl)propyl)-1′,2′,3′,6′-tetrahydro-[3,4′-bipyridine]-6-carbonitrile]: less than 50%.
In the case of `Cc1ccc(F)c2c(=O)[nH]c(CCC(=O)N3CCN(c4ccc(F)cc4C#N)CC3)cc12` [Example 136, 5-fluoro-2-(4-(3-(8-fluoro-5-methyl-1-oxo-1,2-dihydroisoquinolin-3-yl)propanoyl)piperazin-1-yl)benzonitrile], the inhibition at 0.001 µM was less than 50%.
Still for that read-out and setting: next, `O=C(CCc1cc2ccc(F)cc2c(=O)[nH]1)N1CC=C(c2ccc(F)cc2F)CC1` [Example 113, 3-(3-(4-(2,4-difluorophenyl)-3,6-dihydropyridin-1(2H)-yl)-3-oxopropyl)-7-fluoroisoquinolin-1(2H)-one]: less than 50%; `O=c1[nH]c(CCCN2CCN(c3ccnc(F)c3)CC2)cc2ncccc12` [Example 227, 7-(3-(4-(2-fluoropyridin-4-yl)piperazin-1-yl)propyl)-1,6-naphthyridin-5(6H)-one]: less than 50%; `Cc1cc(F)cc2c(=O)[nH]c(CCC(=O)N3CC=C(c4cccc(F)c4)CC3)cc12` [Example 164, 7-fluoro-3-(3-(4-(3-fluorophenyl)-3,6-dihydropyridin-1(2H)-yl)-3-oxopropyl)-5-methylisoquinolin-1(2H)-one]: less than 50%.
For `Cc1ccc(F)c2c(=O)[nH]c(CCCN3CCN(c4ccc(C#N)cn4)CC3)cc12` [Example 22, 6-(4-(3-(8-fluoro-5-methyl-1-oxo-1,2-dihydroisoquinolin-3-yl)propyl)piperazin-1-yl)nicotinonitrile], the inhibition at 0.001 µM was less than 50%.
For `Cc1cc(F)cc2c(=O)[nH]c(CCC(=O)N3CCC(Oc4ccc(C#N)cc4)CC3)cc12` [Example 262, 4-((1-(3-(7-fluoro-5-methyl-1-oxo-1,2-dihydroisoquinolin-3-yl)propanoyl)piperidin-4-yl)oxy)benzonitrile], the inhibition at 0.001 µM is less than 50%.
With `N#Cc1ccc(F)c(N2CCN(C(=O)CCc3cc4cccc(F)c4c(=O)[nH]3)CC2)c1` [Example 79, 4-fluoro-3-(4-(3-(8-fluoro-1-oxo-1,2-dihydroisoquinolin-3-yl)propanoyl)piperazin-1-yl)benzonitrile], the inhibition at 0.001 µM was less than 50%.
As to `N#Cc1cc(F)ccc1N1CCN(C(=O)CCc2cc3cccc(F)c3c(=O)[nH]2)CC1` [Example 76, 5-fluoro-2-(4-(3-(8-fluoro-1-oxo-1,2-dihydroisoquinolin-3-yl)propanoyl)piperazin-1-yl)benzonitrile], the inhibition at 0.001 µM is less than 50%.
Take `Cc1ccc(F)c2c(=O)[nH]c(CCC(=O)N3CC=C(c4ccnc(F)c4)CC3)cc12` [Example 144, 8-fluoro-3-(3-(2′-fluoro-3,6-dihydro-[4,4′-bipyridine]-1(2H)-yl)-3-oxopropyl)-5-methylisoquinolin-1(2H)-one]: the inhibition at 0.001 µM is less than 50%.
On the same count and under the same terms, next, `Cc1ccc(F)c2c(=O)[nH]c(CCCN3CCN(c4ccc(C#N)cc4F)CC3)cc12` [Example 26, 3-fluoro-4-(4-(3-(8-fluoro-5-methyl-1-oxo-1,2-dihydroisoquinolin-3-yl)propyl)piperazin-1-yl)benzonitrile]: 50 to 80%; `Cc1cc(F)cc2c(=O)[nH]c(CCC(=O)N3CCN(c4ccc(C#N)c(F)c4)CC3)cc12` [Example 153, 2-fluoro-4-(4-(3-(7-fluoro-5-methyl-1-oxo-1,2-dihydroisoquinolin-3-yl)propanoyl)piperazin-1-yl)benzonitrile]: less than 50%; `N#Cc1ccc(C2=CCN(C(=O)CCc3cc4ncccc4c(=O)[nH]3)CC2)cc1` [Example 245, 4-(1-(3-(5-oxo-5,6-dihydro-1,6-naphthyridin-7-yl)propanoyl)-1,2,3,6-tetrahydropyridin-4-yl)benzonitrile]: less than 50%.

Staying with this test, now noted: PARP-1 enzyme activity.
Broadly, the IC50 is the concentration that inhibits the measured activity by half. `Cc1ccc(F)c2c(=O)[nH]c(CCCN3CCN(c4ccc(C#N)nc4)CC3)cc12` [Example 21, 5-(4-(3-(8-fluoro-5-methyl-1-oxo-1,2-dihydroisoquinolin-3-yl)propyl)piperazin-1-yl)picolinonitrile] registered an IC50 of 1.09 nM.
On to `N#Cc1ccc(N2CCN(C(=O)CCc3cc4ncccc4c(=O)[nH]3)CC2)cc1` [Example 241, 4-(4-(3-(5-oxo-5,6-dihydro-1,6-naphthyridin-7-yl)propanoyl)piperazin-1-yl)benzonitrile], for which the IC50 was 4.92 nM.
On to `Cc1ccc(F)c2c(=O)[nH]c(CCCN3CCN(c4ccc(C#N)cn4)CC3)cc12` [Example 22, 6-(4-(3-(8-fluoro-5-methyl-1-oxo-1,2-dihydroisoquinolin-3-yl)propyl)piperazin-1-yl)nicotinonitrile], for which the IC50 worked out at 1.2 nM. Against the preceding molecule, the IC50 is about 4.1-fold lower.
